Experimental findings from patent publication US20220249413A1, “SWELL 1 MODULATORS FOR TREATMENT OF NON-ALCOHOLIC FATTY LIVER DISEASE, IMMUNE DEFICIENCIES, MALE INFERTILITY AND VASCULAR DISEASES” (priority 2019, published 2022) are described below.

Holding throughout (format): in vivo, mouse
The subject of one series is SWELL1. The series is described as follows: SWELL1 expression in adipose tissue of treated T2D mice (Western blot). As to conditions: 5 mg/kg i.p. The source says: Patients Human islets and adipocytes were obtained and cultured as described previously (Zhang et al., Nat Cell Biol, 19, 504-517, 2017; Kang et al., Nature Communications, 9, 367, 2018). The Patients involved in the study were anonymous and information such as gender, age, HbA1c, glucose levels and BMI only were available to the research team. The study was approved and carried out as per the guidelines of the University of Iowa Institutional Review Board (IRB). Animals All experimental procedures involving mice were approved by the Institutional Animal Care and Use Committee of the University of Iowa and Washington University at St. Louis. All C57BL/6 mice involved in study were purchased from Charles River Labs. Both KK.Cg-Ay/J (KKA^y) and KK.Cg-Aa/J (KKA^a) mice involved in study were gender and age-matched mice obtained from Jackson Labs (Stock No: 002468) and bred up for experiments. The mice were fed ad libitum with either regular chow (RC) or high-fat diet (Research Diets, Inc., 60 kcal % fat) with free access to water and housed in a light-, temperature- and humidity-controlled room. For high-fat diet (HFD) studies, only male mice were used and were started on HFD regimen at the age of 6-9 weeks. For all experiments involving KKA^y and KKA^a mice, both males and females were used at approximately 50/50 ratio. […] Based on GFP fluorescence, viral transduction efficiency was ˜90%. […]
(In general: In western blotting, separated proteins are transferred to a membrane and probed.)

Series [1] in a line: NAFLD assessment: liver weight, histology, triglycerides, NAS in HFD mice. The following applies: HFD mice treated chronically and intermittently over 21 weeks. The protocol: Liver isolation, triglycerides and histology HFD mice treated with either vehicle or Smod1 were anesthesized with […] followed by cervical dislocation. Gross liver weights were measured and identical sections from right medial lobe of liver were dissected for further examinations. Total triglyceride content was determined by homogenizing 10-50 mg of tissue in 1.5 ml of chloroform:methanol (2:1 v/v) and centrifuged at 12000 rpm for 10 mins at 4° C. An aliquot, 20 ul, was evaporated in a 1.5 ml microcentrifuge tube for 30 mins. Triglyceride content was determined by adding 100 μl of Infinity Triglyceride Reagent (Fisher Scientific) to the dried sample followed by 30 min incubation at RT. The samples were then transferred to a 96 well plate along with standards (0-2000 mg/dl) and absorbance was measured at 540 nm and the final concentration was determined by normalizing to tissue weight. For histological examination, liver sections were fixed in 10% zinc formalin and paraffin embedded for sectioning. Haematoxylin and eosin (H&E) stained sections were then assessed for steatosis grade, lobular inflammation and hepatocyte ballooning for non-alcoholic fatty liver disease (NAFLD) scoring as described (Kleiner et al., Hepatology, 41, 1313-1321, 2005; Liang et al., PLoS One, 9, e115922, 2014; Rauckhorst et al., Mol Metab, 6, 1468-1479, 2017).

A short description of series [2]: Metabolic phenotyping: fasting glucose, GTT, ITT. An excerpt: Patients Human islets and adipocytes were obtained and cultured as described previously (Zhang et al., Nat Cell Biol, 19, 504-517, 2017; Kang et al., Nature Communications, 9, 367, 2018). The Patients involved in the study were anonymous and information such as gender, age, HbA1c, glucose levels and BMI only were available to the research team. The study was approved and carried out as per the guidelines of the University of Iowa Institutional Review Board (IRB). Animals All experimental procedures involving mice were approved by the Institutional Animal Care and Use Committee of the University of Iowa and Washington University at St. Louis. All C57BL/6 mice involved in study were purchased from Charles River Labs. Both KK.Cg-Ay/J (KKA^y) and KK.Cg-Aa/J (KKA^a) mice involved in study were gender and age-matched mice obtained from Jackson Labs (Stock No: 002468) and bred up for experiments. The mice were fed ad libitum with either regular chow (RC) or high-fat diet (Research Diets, Inc., 60 kcal % fat) with free access to water and housed in a light-, temperature- and humidity-controlled room. For high-fat diet (HFD) studies, only male mice were used and were started on HFD regimen at the age of 6-9 weeks. For all experiments involving KKA^y and KKA^a mice, both males and females were used at approximately 50/50 ratio. In all experiments involving mice, investigators were kept blinded both during the experiments and subsequent analysis. Smod1 (DCPIB) treatment Smod1 (DCPIB, Tocris, #D1540), was dissolved in Kolliphor® EL (Sigma, #C5135). Either vehicle (Kolliphor® EL) or Smod1 (5 mg/kg of body weight/day) were injected (intraperitoneal, i.p.) using 1 cc syringe/26G/[…] needle daily for 4-10 days, and in one experiment, daily for 8 weeks. Adenovirus Adenovirus type 5 with Ad5-RIP2-GFP (4.1×10^10 PFU/ml) and Ad5-CAG-LoxP-stop-LoxP-3× Flag-SWELL1 (1×10^10 PFU/ml) were obtained from Vector Biolabs. Adenovirus type 5 with Ad5-CMV-Cre-wt-IRES-eGFP (8×10^10 PFU/ml) was obtained from the University of Iowa Viral Vector Core. Cell culture Wildtype (WT) and SWELL1 knockout (KO) 3T3-F442A (Sigma-Aldrich) cells were cultured and differentiated as described previously (Zhang et al., Nat Cell Biol, 19, 504-517, 2017). Preadipocytes were maintained in 90% DMEM (25 mM D-Glucose and 4 mM L-Glutamine) containing 10% fetal bovine serum (FBS) and 100 IU penicillin and 100 μg/ml streptomycin on collagen-coated (rat tail type-I collagen, Corning) plates. Upon reaching confluency, the cells were differentiated in the above-mentioned media supplemented with 5 μg/ml insulin (Cell Applications) and replenished every other day with the differentiation media. For insulin signaling studies on WT and KO adipocytes with or without SWELL1 overexpression (O/E), the cells were differentiated for 10 days and transduced with Ad5-CAG-LoxP-stop-LoxP-3× Flag-SWELL1 virus (MOI 12) on day 11 in 2% FBS containing differentiation medium. To induce the overexpression, Ad5-CMV-Cre-wt-IRES-eGFP (MOI 12) was added on day 13 in 2% FBS containing differentiation medium. The cells were then switched to 10% FBS containing differentiation medium from day 15 to 17. On day 18, the cells were starved in serum free media for 6 h and stimulated with 0 and 10 nM insulin for either 5 or 15 min. Either Ad5-CAG-LoxP-stop-LoxP-3× Flag-SWELL1 or Ad5-CMV-Cre-wt-IRES-eGFP virus transduced cells alone were used as controls. Based on GFP fluorescence, viral transduction efficiency was ˜90%.
Electrophysiology Patch-clamp recordings of β-cells and mature adipocytes were performed as described previously (Zhang et al., Nat Cell Biol, 19, 504-517, 2017; Kang et al., Nature Communications, 9, 367, 2018). 3T3-F442A WT and KO preadipocytes were prepared as described in the Cell culture section above. […]

Series [3] is described as follows: Traced hyperinsulinemic euglycemic clamp in KKA^y mice.
Setting [4] is: HFD-induced T2D mice and KKA^y model, 5 mg/kg i.p. 4-10 days.
Setting [5] is: control KKA^a parental strain, 5 mg/kg x 4-10 days.

Take `CCCCC1(C2CCCC2)Cc2cc(OCCCC(=O)O)c(Cl)c(Cl)c2C1=O` (stereo not drawn) [Smod1, 4-[(2-Butyl-6,7-dichloro-2-cyclopentyl-2,3-dihydro-1-oxo-1H-inden-5-yl)oxy]butanoic acid]: the “augmentation of SWELL1 expression in adipose tissue” value in the series on SWELL1 (HFD-fed T2D mice) is 2.3 fold. For the same compound, the “adipose SWELL1 expression” value in the series on SWELL1 (KKA^y mice) is “levels comparable to both non-T2D C57/B6 mice and to the parental KKA^a parental strain”. In addition, in series [1], the “hepatic steatosis on histology” value is reported as “marked reduction” and the liver triglycerides entry is on record as “marked reduction”. In addition, in series [1] (5 mg/kg i.p.), the liver weights result was “marked reduction”. In series [1] (vs vehicle), the “NAFLD activity score (NAS)” value was “significantly improved”. Besides, the “random glucose 30 minutes after injection” value in series [2] (HFD fed C57BL/6 mice, 5 mg/kg i.p., acute (FIG. 23)) is on record as “no evidence of exacerbated hyperglycemia”. In addition, in series [2] (setting [4]), the “fasting glucose (FG)” value is “normalized”, the “glucose tolerance (GTT)” value was “normalized” and the “insulin-tolerance (ITT)” value was “markedly improved”. Also, in series [2] (setting [5]), the “glucose and insulin tolerance” value is “nor does it alter glucose and insulin tolerance”; the hypoglycemia result is “does not cause hypoglycemia”. In series [2] (lean, non-T2D, glucose-tolerant mice), the “FG, GTT and ITT compared to vehicle” value was “similar”. The “FG, GTT and ITT” value in series [2] (re-treated after 16 weeks of HFD feeding, HFD-induced T2D mice) is “marked improvements”. The “glucose-infusion rate (GIR) to maintain euglycemia” value in series [3] (KKA^y mice, 5 mg/kg for 4 days) was found to be 33.58 ± 3.4 mg/kg/min. Moreover, in series [3] (KKA^y mice, baseline (basal)), the “reduction of hepatic glucose production (Ra)” value was ~1.6 fold. For the same compound, in series [3] (KKA^y mice, during glucose/insulin infusion (clamp)), the “suppression of hepatic glucose production (Ra)” value was 4.8 fold. In addition, the “enhancement of insulin stimulated 2-DG uptake” value in series [3] (brown fat, skeletal muscle, KKA^y mice) was “not in brown fat, or skeletal muscle”. In addition, the “insulin stimulated 2-DG uptake” value in series [3] (inguinal white adipose tissue (iWAT), KKA^y mice) is 7.0 ± 0.78 nmol/min/g. The glucose-incorporation into glycogen entry in series [3] (liver, adipose and skeletal muscle) is given as “markedly increased”. Besides, the “insulin stimulated 2-DG uptake” value in series [3] (myocardium (Heart), KKA^y mice) is 451.3 ± 24.63 nmol/min/g.
